{
  "source": "patent US11236120B2",
  "about": "“Azithromycin derivatives with epithelial barrier enhancement properties” (EpiEndo Pharmaceuticals ehf, priority 2015, dated 2022)",
  "key": {"[1]": {"experiment": "Stability in human plasma", "type": "in vitro ADME", "details": "room temperature", "description": "Stability in Mouse and Human Plasma\nThe stability of the compounds in mouse and human plasma was performed using protein precipitation as sample clean-up and HPLC-MS detection. The plasma stability studies of the compounds was performed at room temperature for up to 4 hours. A stock solution of […] in DMSO was prepared for each compound. For the plasma stability samples, 100 μL of the stock solution was diluted with 3.9 mL of either mouse or human plasma to a final concentration of […]. The plasma was left to equilibrate for 10 minutes at room temperature before the first analysis. For each analyzed time point ([…]) a 100 μL aliquot of the plasma was removed and protein precipitation (PPT) was performed on the aliquot by adding 900 μL of (ACN:DMSO) 95:5. The precipitated sample was shaken for 60 seconds and then centrifuged. The supernatant was transferred to an HPLC vial and analyzed using HPLC-MS. The chromatographic signal area of the samples at the different time points were then compared against each other, by setting the initial analysis at t=0 min as 100% and then calculating the %-value for each subsequent time point.\n(§1) The chromatographic separation was performed on a Waters HPLC-MS system using a 50×2.1 mm×Bridge C18 column and a gradient elution of Water with 0.1% formic acid and acetonitrile with 0.1% formic acid. The analytes were analyzed in positive electro-spray mode using the (M+H)^+ in single ion recording."}, "Mycobacterium avium": {"tested_on": "Mycobacterium avium", "experiment": "Assay 2: STC colorimetric microplate assay, M. avium", "type": "cell-based"}, "patients with COPD": {"tested_on": "patients with COPD", "details": "double blinded clinical trials; cited from earlier work"}, "[2]": {"tested_on": "barrier integrity in the lungs of mice under sulphur dioxide insult", "experiment": "Barrier integrity enhancement in the lung: HSA leakage into BAL after sulphur dioxide insult", "type": "in vivo", "description": "The effect of compounds of the invention on maintenance of barrier integrity in the lungs of mice under sulphur dioxide insult was investigated.\n1. 15 female mice were randomised into 3 groups of 5 mice. The three groups were: • a) Control group • b) Azithromycin treatment group • c) Investigational compound treatment group\n2. The mice were pre-treated for three days with: • a) Placebo (Phosphate buffered saline—PBS) given at a dose of 10 mg/kg in an intravenous injection of 100 μl three times per week. • b) Azithromycin: given at a dose of 10 mg/kg in an intravenous injection of 100 μl three times per week. • c) The compound of Example 2: given at a dose of 10 mg/kg in an intravenous injection of 100 μl three times per week.\n3. One mouse in each group was set to one side as a control. Four mice were then exposed to sulphur dioxide gas at a concentration of 200 ppm in air for a period of 60 minutes. The mice were in a cage that was inserted into a 45 L treatment box with a removable lid, a gas feed line and a gas exhaust vent. […] The gas was premixed from bottled air and bottled 200 ppm SO2 in a first box and then fed into the treatment box. The level of SO2 being fed into the treatment box can be varied by adjusting the relative flow of air and SO2 from the two source cylinders. As the sulphur dioxide concentration in this experiment was 200 ppm, it was used neat, with no additional air being mixed with it. The mice had access to food and water for the duration of the treatment.\n4. 24 hours after the end of the treatment, 1 mg of human serum albumin (HSA) in 100 μl saline was injected into the tail vein of each mouse, and fluorescent dextrans (FDs) were injected into the airways. The mice were then kept sedated for 90 minutes.\n5. After 90 minutes, the mice were sacrificed via exsanguination. Plasma and bronchoalveolar lavage (BAL) were collected and the lungs were processed for paraffin embedding.\n6. The level of HSA in the BAL was quantified by ELISA. The ELISA test used was the one commercially available from abcam (Human Serum Albumin kit ab179887). In line with the kit manufacturer's instructions, absorbance at […] was measured. Fluorescent dextrans are quantified using a fluorescent plate reader.\nThe level of HSA that leaks into the lungs, as found in the BAL, is a measure of the integrity of the lung epithelial barrier.\nIn the placebo group, there were experimental difficulties with two of the four mice; in the Azithromycin group, there were experimental difficulties with one of the four mice; and in the investigational compound group, there were experimental difficulties with two of the four mice. Therefore, results were obtained from two mice in each of the placebo and investigational compound groups, and from three mice in the Azithromycin group."}, "[3]": {"experiment": "Solubility in 10 mM phosphate buffer (pH 7.4)", "type": "physicochemical", "details": "pH 7.4, aqueous buffer, kinetic from dmso stock, 60 minutes at room temperature, filtered, read-out: MTS Solubility in Buffer (pH 7.4)", "description": "Solubility in 10 mM Phosphate Buffer (pH 7.4)\nThe solubility sample testing of the compounds was performed by in phosphate buffer at pH 7.4 and using HPLC-MS detection. A stock solution of […] in DMSO was prepared for each compound. For the solubility test sample, 100 μL of the stock solution was diluted with 3.9 mL of a 10 mM phosphate buffer at […] to a final concentration of […]. The buffer solution was left to stand for 60 minutes at room temperature and then filtered. The filtrate was analyzed against two calibration points of the same analyte prepared at […] using HPLC-MS. These calibration points were prepared from the same stock solution as the solubility sample by diluting it with DMSO:H2O (1:1) 1:40 and then again 1:10. The chromatographic signal area of the analyte in the solubility sample was then compared to the chromatographic signal area of the two calibration samples.\nas §1"}, "[4]": {"tested_on": "epithelial cells in vitro ALI culture", "details": "cited from earlier work"}},
  "note": "Entries after “also recorded” stand apart in the source; their conditions may differ.",
  "data": [
    {"smiles": "CC[C@H]1OC(=O)[C@H](C)[C@@H](O[C@H]2C[C@@](C)(OC)[C@@H](O)[C@H](C)O2)[C@H](C)[C@@H](O[C@@H]2O[C@H](C)C[C@H](N(C)C)[C@H]2O)[C@](C)(O)C[C@@H](C)CN(C)[C@H](C)[C@@H](O)[C@]1(C)O", "note": "[Azithromycin, (2R,3S,4R,5R,8R,10R,11R,12S,13S,14R)-11-[(2S,3R,4S,6R)-4-(dimethylamino)-3-hydroxy-6-methyl-tetrahydropyran-2-yl]oxy-2-ethyl-3,4,10-trihydroxy-13-[(2R,4R,5S,6S)-5-hydroxy-4-methoxy-4,6-dimethyl-tetrahydropyran-2-yl]oxy-3,5,6,8,10,12,14-heptamethyl-1-oxa-6-azacyclopentadecan-15-one]", "values": [
      {"measurement": "Degradation in Human Plasma at RT", "setting": "[1]", "result": 6, "unit": "% per hour"},
      {"measurement": "MIC", "setting": "Mycobacterium avium; Mycobacterium avium S1002170205", "result": 16, "unit": "µg/mL"},
      {"measurement": "MIC", "setting": "Mycobacterium avium; Mycobacterium avium S1003050114", "result": 32, "unit": "µg/mL"},
      {"measurement": "reduction of the hospitalisation rate and disease related exacerbations", "setting": "patients with COPD", "result": 30, "unit": "%"},
      {"measurement": "HSA level - absorbance at 600 nm", "setting": "[2]; HSA in BAL by ELISA, mice, 10 mg/kg intravenous, 200 ppm SO2 for 60 minutes", "result": "0.346 ± 0.031"},
      {"measurement": "leakage of HSA into the lung following SO2 insult", "setting": "[2]; compared with control, FIG. 1", "result": "reduced compared with the control; also recorded: reduced compared with a control"},
      {"measurement": "HSA level - absorbance at 600 nm relative to control", "setting": "[2]; relative to PBS control, mice, 10 mg/kg intravenous, 200 ppm SO2 for 60 minutes", "result": "0.593 ± 0.053"},
      {"measurement": "solubility at 60 min", "setting": "[3]", "result": 0.26, "unit": "µM"},
      {"measurement": "effect on transepithelial resistance (TER) and cellular processing of tight junctions", "setting": "[4]", "result": "increasing transepithelial resistance"}
    ]}
  ]
}
